Measurements taken from US8791258B2, “Pro-fluorescent probes” (The Regents of the University of California, priority 2008, dated 2014).

Key:
[1] = Kinetics of H2O2-mediated boronate deprotection; settings: pseudo-first-order conditions, 5 μM dye, 10 mM H2O2
Experimental: (§1) MitoPY1 features two major visible region absorptions (λabs=489 nm, ε=14,300 M^−1 cm^−1; 510 nm, ε=14,200 M^−1 cm^−1) and a weak emission (λ=540 nm, Φ=0.019, FIG. S1) in 20 mM HEPES, pH 7. […] Kinetics measurements of the H2O2-mediated boronate deprotection were performed under pseudo-first-order conditions (5 μM dye, 10 mM H2O2), giving an observed rate constant of k=2.0(1)×10^−3 s^−1.

[2] = Absorption and emission properties, fluorescence quantum yield; format: physicochemical; settings: 20 mM HEPES, pH 7
Experimental: (§2) Millipore water was used to prepare all aqueous solutions. All spectroscopic measurements were performed in 20 mM HEPES buffer, pH 7. Absorption spectra were recorded using a Varian Cary 50 spectrophotometer (Walnut Creek, Calif.). Fluorescence spectra were recorded using a Photon Technology International Quanta Master 4 L-format scanning spectrofluorometer (Lawrenceville, N.J.) equipped with an LPS-220B 75-W xenon lamp and power supply, A-1010B lamp housing with integrated igniter, switchable 814 photon-counting/analog photomultiplier detection unit, and MD5020 motor driver. Samples for absorption and fluorescence measurements were contained in 1-cm×1-cm quartz cuvettes (1.4- or 3.5-mL volume, Starna, Atascadero, Calif.).
as §2, with “recorded on” for “recorded using”, “Creek, Calif.) and fluorescence” for “Creek, Calif.). Fluorescence”, “and emission” for “and fluorescence”, “cuvettes (1.5-mL” for “cuvettes (1.4- or 3.5-mL”, “Calif.). Fluorescence quantum yields were determined by reference to fluorescein in 0.1M NaOH (Φ=0.95).” for “Calif.).”

[3] = Turn-on fluorescence responses to a panel of biologically relevant ROS; settings: 20 mM HEPES, pH 7, 25° C.
Experimental: Bars represent relative responses at 0, 5, 15, 30, 45, and 60 min after addition of each ROS. Data shown are for 10 mM O2- (with 10 μM catalase), 200 μM NO, and 100 μM for all other ROS. Data were acquired at 25° C. in 20 mM HEPES, pH 7, with excitation at λ=510 nm and emission collected between 518 and 750 nm.
as §1

[4] = tested on: HeLa cells; format: cell-based
Experimental: 100 μM H2O2 was then added to one of the petri dishes. At 20 minutes, 50 nM MitoTracker Deep Red, 500 nM Lysotracker Red, and 1 μM Hoechst 33342 were added to both dishes. After an additional 20 minutes (40 minute stimulation total), the two coverslips were put in a single, new petri dish filled with fresh DPBS and confocal images were taken (3.2 μsec pixel time, 100% laser power for 514 line, 4.1% laser power for the 633 line, 26% laser power for the 543 line, scanned using 12-bit multi-track scan mode using a constant receiver gain). Shown above are signals from MitoPY1 (a), MitoTracker Deep Red (b), LysoTracker Red (c), an overlay of MitoTracker Deep Red and MitoPY1 (d), Hoechst (e), and a brightfield image (f) of cells not treated with H2O2, as well as signals from MitoPY1 (g), MitoTracker Deep Red (h), LysoTracker Red (i), an overlay of MitoTracker Deep Red and MitoPY1 (j), Hoechst (k), and a brightfield image (l) of cells treated with H2O2. A 20 μm scale bar shown for all images.
HeLa cells incubated with 5 μM MitoPY1 for 60 min at 37° C. and imaged with MitoPY1 (a), MitoTracker Red and Hoechst (overlay, b), and MitoPY1 with MitoTracker Red (overlay, c). HeLa cells incubated with 5 μM MitoPY1 for 60 min at 37° C. with 100 μM H2O2 added for the final 40 min and imaged with MitoPY1 (d), MitoTracker Red and Hoechst (overlay, e), MitoPY1 and MitoTracker Red (overlay, f), and brightfield (g) with 20 μm scale bar. HeLa cells incubated with 5 μM MitoPY1 for 60 min at 37° C. and imaged with MitoPY1 (h), MitoTracker Red and Hoechst (overlay, i), and MitoPY1 with MitoTracker Red (overlay, j). HeLa cells incubated for 24 h with 1 mM paraquat, then washed and incubated with 5 μM MitoPY1 for 60 min at 37° C. and imaged with MitoPY1 (k), MitoTracker Red and Hoechst (overlay, l), MitoPY1 and MitoTracker Red (overlay, m), and brightfield (n) with 20 μm scale bar.
HEK293 cells were cultured in DMEM (Invitrogen) supplemented with 10% fetal bovine serum (FBS, Hyclone) and glutamine (2 mM). CHO.K1 cells were cultured in DMEM with F-12 supplements, glutamax (Invitrogen), and 5% FBS. Cos-7 cells were cultured in DMEM with high glucose, glutamax, 10% FBS, and non-essential amino acids (Invitrogen). HeLa cells were cultured in DMEM with high glucose, glutamax, and 10% FBS. Two days before imaging, cells were passaged and plated on 18-mm glass coverslips. For all experiments, solutions of dyes (from 5 mM stocks in DMSO) were made in DBPS with calcium chloride and magnesium chloride (Sigma). H2O2 was added by bath application to the medium from a 100 mM aqueous stock. For paraquat treatment, HeLa cells were cultured as described above. One day prior to imaging, 1 mM paraquat was added to cells from a 0.5 M stock solution in water. An equal amount of water was added to control cells at the same time. Cells were then incubated at 37° C., 5% CO2. After 24 hours, the media was exchanged for DPBS with 5 μM dye and incubated for 1 hour.
Confocal fluorescence imaging studies were performed with a Zeiss LSM510 NLO Axiovert 200 laser scanning microscope and a 63× Achroplan IR water-immersion objective lens. Excitation of PY-loaded cells at 510 nm was carried out with an Ar laser and emission was collected using a META detector between 527-580 nm. MitoTracker Deep Red was excited with a 633-nm line and emission was collected between 666-698 nm. LysoTracker Red was excited with a 543-nm line and emission was collected between 580-644 nm. Excitation of Hoechst 33342 was carried out using a MaiTai two-photon laser at 780-nm pulses (mode-locked Ti:sapphire laser, Tsunami Spectra Physics) and emission was collected between 452-537 nm. Image analysis was performed in Adobe Photoshop.
MitoPY1 was tested for its ability to both target the mitochondria and respond to H2O2 in living biological systems. […] Again, co-staining with MitoTracker confirms that the dye is retained in the mitochondria and detects localized rises in H2O2 concentrations.

[5] = tested on: HeLa cells; settings: cited from earlier work

Compound	observed rate constant k of H2O2-mediated boronate deprotection [1]	fluorescence quantum yield Φ ([2]; by reference to fluorescein)	extinction coefficient ε at 489 nm ([2]; λabs 489 nm)	extinction coefficient ε at 510 nm ([2]; λabs 510 nm)	selectivity of turn-on response for H2O2 over other ROS [3]	cell viability during imaging [4]	fluorescence of probe-loaded cells without H2O2 ([4]; 5 μM probe, 1 h at 37° C.)	subcellular localization (co-staining with MitoTracker Deep Red, LysoTracker Red) ([4]; 5 μM probe, 50 nM MitoTracker Deep Red, 500 nM LysoTracker Red)	fluorescence after addition of H2O2 compared to control cells ([4]; 100 μM H2O2)	detection of endogenous mitochondrial H2O2 in paraquat-treated cells ([4]; 1 mM paraquat 24 h, then 5 μM probe, compared to control cells)	IC50 [5]
CC1(C)OB(c2ccc3c(c2)Oc2cc(N4CCN(CCCC[P+](c5ccccc5)(c5ccccc5)c5ccccc5)CC4)ccc2C32OC(=O)c3ccccc32)OC1(C)C.[I-] (centres unmarked) [MitoPY1]	2.0(1)×10^−3 s^−1	0.019	14,300 M^−1 cm^−1	14,200 M^−1 cm^−1	selective for H2O2 over ROS like superoxide, nitric oxide, and hydroxyl radical	cells are viable throughout the imaging experiments	faint but measurable levels of fluorescence	localized to the mitochondria	marked localized increase in fluorescence	clear increases in mitochondrial-localized H2O2 levels	–
C[n+]1ccc(-c2cc[n+](C)cc2)cc1 [paraquat]	–	–	–	–	–	–	–	–	–	–	1020 µM
